Read-outs that look alike come from different tables or passages of the source.
Key:
hSTING [1] = target: T1, hSTING (Homo sapiens, UniProt Q86WV6); settings: cited from earlier work; for Kd: natural cyclic dinucleotides, read-out: Kd (binding constant for hSTING)
T1 construct: SUMO; His; made in house; host or cells: E. coli Rosetta 2(pLysS)

hSTING [2] = target: T1, hSTING; assay: Probe displacement assay: F-c-di-GMP displaced from hSTING by unlabeled cyclic dinucleotides (FP); type: binding; settings: 50 nM F-c-di-GMP, 10 μM hSTING; read-out: apparent half maximal inhibitory concentration (displacement of F-c-di-GMP)
hENPP1 [3] = system: T2, hENPP1; assay: ENPP1 cGAMP hydrolysis tracking, FP assay detection; type: biochemical, human; settings: ENPP1 9.16 nM, 50 μM cGAMP
T2 construct: purchased R&D Systems

hENPP1 [4] = system: T2, hENPP1; assay: ENPP1 cGAMP hydrolysis tracking, HPLC analysis; type: biochemical, human; settings: ENPP1 9.16 nM, 50 μM cGAMP
hSTING [5] = target: T1, hSTING; assay: hSTING titration of fluorescein-labeled cyclic dinucleotide probes by fluorescence polarization; type: binding; settings: 50 nM probe, 1× PBS, 5 min room temperature, n = 3; read-out: Kd (dissociation constant, probe-hSTING)
[6] = ENPP1 hydrolysis products of cGAMP, stated without reference

T1 sequence (Q86WV6 155-341 limits assumed): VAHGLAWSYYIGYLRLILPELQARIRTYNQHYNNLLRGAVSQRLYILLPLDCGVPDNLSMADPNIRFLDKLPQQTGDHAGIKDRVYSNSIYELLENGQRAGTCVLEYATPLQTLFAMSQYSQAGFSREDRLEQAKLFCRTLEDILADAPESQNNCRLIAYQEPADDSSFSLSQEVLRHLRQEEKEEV

Q: For `Nc1nc2c(ncn2[C@@H]2O[C@H](COP(=O)(O)O)[C@@H](O)[C@H]2O)c(=O)[nH]1` [GMP], which hSTING binding (hSTING [1]; [6]) is on record?
A: The hSTING binding was “do not bind”.

Q: Which IC50 (hSTING [2]) does the source give for `Nc1nc2c(ncn2[C@@H]2O[C@@H]3COP(=O)(O)O[C@H]4[C@@H](O)[C@H](n5cnc6c(=O)[nH]c(N)nc65)O[C@@H]4COP(=O)(O)O[C@H]3[C@H]2O)c(=O)[nH]1` [c-di-GMP] here?
A: Its IC50 is 7.41 ± 0.49 µM.

Q: And the Kd (hSTING [1])?
A: The Kd was 1.21 µM.

Q: For `Nc1nc2c(ncn2[C@@H]2O[C@@H]3COP(=O)(O)O[C@H]4[C@@H](O)[C@H](n5cnc6c(N)ncnc65)O[C@@H]4COP(=O)(O)O[C@@H]2[C@@H]3O)c(=O)[nH]1` [cGAMP, 2′3-cGAMP], which “cGAMP percent cleavage FP Assay” value (hENPP1 [3]; 0 min) is on record?
A: The value was 0%.

Q: And the “cGAMP percent cleavage FP Assay” value (hENPP1 [3]; 10 min)?
A: The value was 49%.

Q: What about the “cGAMP percent cleavage FP Assay” value (hENPP1 [3]; 20 min) of the same molecule?
A: Its value is 77%.

Q: And the “cGAMP percent cleavage FP Assay” value (hENPP1 [3]; 30 min)?
A: The value was 98%.

Q: And the “cGAMP percent cleavage FP Assay” value (hENPP1 [3]; 40 min)?
A: Its value is 95%.

Q: And the “cGAMP percent cleavage FP Assay” value (hENPP1 [3]; 50 min (assumed 100% cleavage))?
A: Its value is 100%.

Q: What about the “cGAMP percent cleavage HPLC” value (hENPP1 [4]; 0 min) of the same molecule?
A: Its value is 0%.

Q: And the “cGAMP percent cleavage HPLC” value (hENPP1 [4]; 10 min)?
A: The value was 44%.

Q: And the “cGAMP percent cleavage HPLC” value (hENPP1 [4]; 20 min)?
A: The value was 56%.

Q: What about the “cGAMP percent cleavage HPLC” value (hENPP1 [4]; 40 min) of the same molecule?
A: The value was 76%.

Q: What about the “cGAMP percent cleavage HPLC” value (hENPP1 [4]; 50 min) of the same molecule?
A: The value was 85%.

Q: With `Nc1ncnc2c1ncn2[C@@H]1O[C@H](COP(=O)(O)O)[C@@H](O)[C@H]1O` [AMP] as the molecule, how does the hSTING binding (hSTING [1]; [6]) read?
A: The hSTING binding was “do not bind”.

Q: Which Kd (hSTING [5]) does the source give for “2′-O-(6-[fluoresceinyl]aminohexylcarbamoyl)-cyclic diguanosine monophosphate [F-c-di-GMP]” here?
A: The Kd was 3.45 ± 0.48 µM.

Q: Which results are given for `Nc1ncnc2c1ncn2[C@@H]1O[C@@H]2COP(=O)(O)O[C@H]3[C@@H](O)[C@H](n4cnc5c(N)ncnc54)O[C@@H]3COP(=O)(O)O[C@H]2[C@H]1O` [c-di-AMP]?
A: IC50 (hSTING [2]): 7.35 ± 0.86 µM; Kd (hSTING [1]): 1.38 µM

Q: With “2′-O-(6-[fluoresceinyl]aminohexylcarbamoyl)-cyclic diadenosine monophosphate [F-c-di-AMP]” as the molecule, how does the Kd (hSTING [5]) read?
A: The Kd was 29.8 ± 6.3 µM.

Q: With `Nc1nc2c(ncn2[C@@H]2O[C@H](CO)[C@@H](O)[C@H]2OP(=O)(O)OC[C@H]2O[C@@H](n3cnc4c(N)ncnc43)[C@H](O)[C@@H]2OP(=O)(O)O)c(=O)[nH]1` [Gp[2′–5′]Ap[3′]] as the molecule, how does the hSTING binding (hSTING [1]; poxin product of cGAMP) read?
A: Its hSTING binding is “does not bind”.
